Reference: ChEMBL document CHEMBL4043078, “Biological evaluation of pyridone alkaloids on the endocannabinoid system” (Bioorg Med Chem, 2017)
The source made the active and inactive calls. No cut-off for these calls is given here.

Columns and labels:
Sus scrofa = organism: Sus scrofa; experiment: Inhibition of MAGL in pig brain homogenates using [3H]2-OG as substrate at 10 uM after 15 mins in presence of URB597 by liquid scintillation counting method; type: tissue-based
[1] = molecular target: T1, Lysophosphatidylserine lipase ABHD12 (Mus musculus) (UniProt Q99LR1); experiment: Inhibition of ABHD12 in mouse BV2 cells preincubated for 30 mins and subsequent addition of [3H]-2-OG substrate measured after 15 mins by liquid scintillation counting method; type: cell-based
T1 sequence (whole entry): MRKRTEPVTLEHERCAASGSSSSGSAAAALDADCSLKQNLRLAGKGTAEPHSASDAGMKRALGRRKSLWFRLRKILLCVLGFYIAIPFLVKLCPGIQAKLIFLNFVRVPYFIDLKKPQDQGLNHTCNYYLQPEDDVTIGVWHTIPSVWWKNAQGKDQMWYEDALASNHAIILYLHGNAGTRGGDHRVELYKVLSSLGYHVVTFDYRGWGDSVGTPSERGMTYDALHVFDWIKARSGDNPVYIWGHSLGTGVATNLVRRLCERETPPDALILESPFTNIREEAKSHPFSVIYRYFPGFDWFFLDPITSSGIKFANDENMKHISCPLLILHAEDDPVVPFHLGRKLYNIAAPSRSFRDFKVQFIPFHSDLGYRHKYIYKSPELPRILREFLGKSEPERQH

[2] = molecular target: T2, Monoacylglycerol lipase ABHD6 (Mus musculus) (UniProt Q8R2Y0); experiment: Inhibition of ABHD6 in mouse BV2 cells preincubated for 30 mins and subsequent addition of [3H]-2-OG substrate measured after 15 mins by liquid scintillation counting method; type: cell-based
T2 sequence (whole entry): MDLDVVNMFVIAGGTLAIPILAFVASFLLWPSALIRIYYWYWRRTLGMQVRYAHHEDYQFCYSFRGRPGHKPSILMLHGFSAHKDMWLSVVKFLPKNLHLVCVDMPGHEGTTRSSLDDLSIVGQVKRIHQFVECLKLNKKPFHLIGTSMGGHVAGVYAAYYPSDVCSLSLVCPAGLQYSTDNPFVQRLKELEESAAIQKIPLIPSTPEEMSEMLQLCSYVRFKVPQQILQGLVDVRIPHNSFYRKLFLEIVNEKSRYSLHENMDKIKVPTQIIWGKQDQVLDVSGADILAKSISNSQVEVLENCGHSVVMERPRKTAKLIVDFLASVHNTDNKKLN

[3] = molecular target: T3, Fatty-acid amide hydrolase 1 (Homo sapiens) (UniProt O00519); experiment: Inhibition of FAAH in human U937 cells assessed as decrease in [ethanolamine-1-3H]AEA uptake at 10 uM preincubated for 2 mins followed by AEA addition after 5 mins by liquid scintillation counting method; type: cell-based
T3 sequence (whole entry): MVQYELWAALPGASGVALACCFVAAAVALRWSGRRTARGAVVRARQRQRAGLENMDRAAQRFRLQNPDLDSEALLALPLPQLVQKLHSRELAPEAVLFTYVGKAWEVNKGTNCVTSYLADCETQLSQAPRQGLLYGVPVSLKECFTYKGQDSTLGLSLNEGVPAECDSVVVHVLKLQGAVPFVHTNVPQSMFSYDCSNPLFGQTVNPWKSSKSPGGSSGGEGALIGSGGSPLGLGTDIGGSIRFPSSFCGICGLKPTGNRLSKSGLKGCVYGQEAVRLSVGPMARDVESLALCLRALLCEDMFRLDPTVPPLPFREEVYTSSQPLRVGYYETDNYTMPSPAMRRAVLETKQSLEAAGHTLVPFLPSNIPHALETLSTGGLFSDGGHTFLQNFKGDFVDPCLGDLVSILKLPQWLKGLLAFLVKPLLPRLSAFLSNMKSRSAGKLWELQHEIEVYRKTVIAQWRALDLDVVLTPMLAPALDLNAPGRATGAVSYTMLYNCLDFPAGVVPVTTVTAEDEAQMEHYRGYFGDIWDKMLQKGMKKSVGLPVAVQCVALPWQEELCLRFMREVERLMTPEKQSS

Cannabinoid receptor 1 [4] = molecular target: T4, Cannabinoid receptor 1 (Homo sapiens, UniProt P21554); experiment: Displacement of [3H]CP55,940 from human CB1 receptor expressed in CHOK1 cell membranes at 1 uM after 2 hrs by liquid scintillation counting method relative to control
T4 sequence (P21554 whole entry): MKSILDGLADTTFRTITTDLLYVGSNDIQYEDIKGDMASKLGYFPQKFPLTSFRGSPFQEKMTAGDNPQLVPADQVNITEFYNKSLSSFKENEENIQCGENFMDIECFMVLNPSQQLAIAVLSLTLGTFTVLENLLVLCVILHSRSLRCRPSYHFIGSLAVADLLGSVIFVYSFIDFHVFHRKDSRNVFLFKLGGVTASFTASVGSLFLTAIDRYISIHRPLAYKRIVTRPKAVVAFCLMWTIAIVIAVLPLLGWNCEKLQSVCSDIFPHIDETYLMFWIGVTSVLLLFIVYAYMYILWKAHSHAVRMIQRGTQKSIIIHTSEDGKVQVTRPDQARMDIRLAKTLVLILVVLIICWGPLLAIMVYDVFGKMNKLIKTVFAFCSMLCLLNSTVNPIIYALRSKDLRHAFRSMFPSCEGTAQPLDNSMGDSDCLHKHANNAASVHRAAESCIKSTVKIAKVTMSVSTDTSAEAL

Cannabinoid receptor 2 [5] = molecular target: T5, Cannabinoid receptor 2 (Homo sapiens, UniProt P34972); experiment: Displacement of [3H]CP55,940 from human CB2 receptor expressed in CHOK1 cell membranes at 1 uM after 2 hrs by liquid scintillation counting method relative to control
T5 sequence (P34972 whole entry): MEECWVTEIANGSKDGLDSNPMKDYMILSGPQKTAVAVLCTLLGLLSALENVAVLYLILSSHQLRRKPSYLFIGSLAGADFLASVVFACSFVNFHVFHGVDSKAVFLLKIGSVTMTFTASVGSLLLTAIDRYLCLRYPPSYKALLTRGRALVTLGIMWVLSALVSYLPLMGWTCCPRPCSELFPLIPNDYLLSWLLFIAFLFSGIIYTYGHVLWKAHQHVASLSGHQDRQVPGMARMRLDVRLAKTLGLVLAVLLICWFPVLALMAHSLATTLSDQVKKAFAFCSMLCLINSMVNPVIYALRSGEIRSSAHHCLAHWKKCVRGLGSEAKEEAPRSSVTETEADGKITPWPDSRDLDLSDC

[6] = Inhibition of MAGL in pig brain homogenates using [3H]2-OG as substrate after 15 mins by liquid scintillation counting method; type: tissue-based, Sus scrofa
[7] = molecular target: T6, Fatty-acid amide hydrolase 1 (Homo sapiens, UniProt O00519); experiment: Inhibition of FAAH in human U937 cells using [ethanolamine-1-3H]AEA as substrate after 15 mins by liquid scintillation counting method; type: cell-based
T6 sequence (O00519 whole entry): T3 sequence (whole entry)

Cannabinoid receptor 1 [8] = molecular target: T4, Cannabinoid receptor 1; experiment: Displacement of [3H]CP55,940 from human CB1 receptor expressed in CHOK1 cell membranes after 2 hrs by liquid scintillation counting method
[9] = molecular target: T6, Fatty-acid amide hydrolase 1; experiment: Inhibition of FAAH in human U937 cells assessed as decrease in [ethanolamine-1-3H]AEA uptake preincubated for 2 mins followed by AEA addition after 5 mins by liquid scintillation counting method; type: cell-based
[10] = molecular target: T3, Fatty-acid amide hydrolase 1 (Homo sapiens); experiment: Inhibition of FAAH in human U937 cells using [ethanolamine-1-3H]AEA as substrate at 10 uM after 15 mins by liquid scintillation counting method relative to control; type: cell-based
Cannabinoid receptor 2 [11] = molecular target: T5, Cannabinoid receptor 2; experiment: Displacement of [3H]CP55,940 from human CB2 receptor expressed in CHOK1 cell membranes after 2 hrs by liquid scintillation counting method
[12] = molecular target: T7, Prostaglandin G/H synthase 2 (Homo sapiens, UniProt P35354); experiment: Inhibition of recombinant human COX2 preincubated for 15 mins followed by arachidonic acid/2-OG substrate addition after 5 mins by ADHP probe-based fluorescence assay
T7 sequence (P35354 whole entry): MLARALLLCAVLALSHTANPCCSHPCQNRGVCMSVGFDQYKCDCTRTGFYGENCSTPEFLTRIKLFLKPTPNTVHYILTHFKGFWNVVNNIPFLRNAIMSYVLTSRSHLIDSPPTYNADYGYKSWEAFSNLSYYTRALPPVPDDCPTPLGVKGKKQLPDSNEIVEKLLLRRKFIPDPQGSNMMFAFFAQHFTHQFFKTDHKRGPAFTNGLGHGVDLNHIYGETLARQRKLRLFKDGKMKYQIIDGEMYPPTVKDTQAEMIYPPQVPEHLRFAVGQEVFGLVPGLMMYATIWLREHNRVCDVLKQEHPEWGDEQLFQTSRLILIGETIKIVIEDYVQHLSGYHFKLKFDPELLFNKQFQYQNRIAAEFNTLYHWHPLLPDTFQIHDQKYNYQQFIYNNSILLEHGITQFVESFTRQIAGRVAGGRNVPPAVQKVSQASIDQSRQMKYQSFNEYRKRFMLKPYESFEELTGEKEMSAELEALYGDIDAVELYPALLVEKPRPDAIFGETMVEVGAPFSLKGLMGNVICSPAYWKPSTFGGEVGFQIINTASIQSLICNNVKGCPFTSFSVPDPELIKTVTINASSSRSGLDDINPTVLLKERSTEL

SMILES | inhibition (Sus scrofa) | inhibition [1] | inhibition [2] | inhibition [3] | inhibition (Cannabinoid receptor 1 [4]) | inhibition (Cannabinoid receptor 2 [5]) | IC50 [6] | IC50 [7] | Ki (Cannabinoid receptor 1 [8]) | IC50 [9] | inhibition [10] | Ki (Cannabinoid receptor 2 [11]) | IC50 [12]
NC(=O)c1cccc(-c2cccc(OC(=O)NC3CCCCC3)c2)c1 | inactive | inactive | inactive |  |  |  |  |  |  |  |  |  | 
CCCCCCCCCCC[C@@H](C[C@@H]1OC(=O)[C@H]1CCCCCC)OC(=O)[C@H](CC(C)C)NC=O |  | Active | Active |  |  |  |  |  |  |  |  |  | 
CC[C@@H](C)/C=C(C)/C=C/C(=O)c1c(O)c(-c2ccc(O)cc2)c[nH]c1=O | inactive | inactive | inactive | Active | 40% |  |  |  |  |  |  |  | 
CN(Cc1cccc(-c2ccncc2)c1)C(=O)Oc1ccc(-c2ccc(C(N)=O)cc2)cc1 |  | Active | Active |  |  |  |  |  |  |  |  |  | 
CCC(C)/C=C(C)/C=C/C=C/C(=O)c1c(O)c(-c2ccc(O)cc2)c[nH]c1=O (stereo not given) | inactive | inactive | inactive | inactive | < 20% | < 20% |  |  |  |  |  |  | 
CCC(/C=C(C)/C=C/C(=O)c1c(O)c(-c2ccc(O)cc2)c[nH]c1=O)CO (stereo not given) | inactive | inactive | inactive | inactive | < 20% | < 20% |  |  |  |  |  |  | 
CCCCCCCCCCOC(=O)c1c(O)c(-c2ccc(O)cc2)c[nH]c1=O | inactive | inactive | inactive | Active | < 20% | < 20% | > 10000 nM | > 10000 nM | > 1000 nM | 600 nM | 40 to 50% | > 1000 nM | > 10000 nM
CCC(/C=C/C=C/C=C/C(=O)c1c(O)c(-c2ccc(O)cc2)c[nH]c1=O)CO (stereo not given) | inactive | inactive | inactive | inactive | < 20% | < 20% |  |  |  |  |  |  | 
CCCCCCCCCCCC(=O)c1c(O)c(-c2ccc(O)cc2)c[nH]c1=O | inactive | inactive | inactive | Active | 50% | inactive | > 10000 nM | 4600 nM | 1000 nM | 800 nM | 40 to 50% | > 1000 nM | > 10000 nM
CCCCCCCCCCCCCCCCCC(=O)c1c(O)c(-c2ccc(O)cc2)c[nH]c1=O | inactive | inactive | inactive | inactive | < 20% | < 20% | > 10000 nM | > 10000 nM | > 1000 nM | > 10000 nM |  | > 1000 nM | > 10000 nM
O=C(Oc1ccc([N+](=O)[O-])cc1)N1CCC(C(O)(c2ccc3c(c2)OCO3)c2ccc3c(c2)OCO3)CC1 | inactive | inactive | inactive |  |  |  |  |  |  |  |  |  | 
CCC(C)CC(C)/C=C(C)/C=C/C(=O)c1c(O)c(-c2ccc(O)cc2)c[nH]c1=O (stereo not given) | inactive | inactive | inactive | inactive | 40% |  |  |  |  |  |  |  | 
CCC(C)/C=C(C)/C=C/C=C/C(=O)c1c(OC)c(-c2ccc(O)cc2)c[nH]c1=O (stereo not given) | inactive | inactive | inactive | Active | < 20% | < 20% |  |  |  |  |  |  | 
CCC(C)CC(C)/C=C(C)/C=C/C=C/C(=O)c1c(O)c(-c2ccc(O)cc2)c[nH]c1=O (stereo not given) | inactive | inactive | inactive | Active | < 20% | < 20% |  |  |  |  | 40 to 50% |  | 
C=CCCCOC(=O)c1c(O)c(-c2ccc(O)cc2)c[nH]c1=O | inactive | inactive | inactive | inactive | < 20% | < 20% |  |  |  |  |  |  | 
CCCCCCCC(=O)c1c(O)c(-c2ccc(O)cc2)c[nH]c1=O | inactive | inactive | inactive | Active | < 20% | < 20% | > 10000 nM | > 10000 nM | > 1000 nM | 700 nM | 80% | > 1000 nM | > 10000 nM
CCC(C)/C=C(C)/C=C/C=C/C=C/C(=O)c1c(O)c(-c2ccc(O)cc2)c[nH]c1=O (stereo not given) [FARINOSONE A] | inactive | inactive | inactive | Active | < 20% | < 20% | > 10000 nM | > 10000 nM | > 1000 nM | 1200 nM |  | > 1000 nM | > 10000 nM
